Values of other authors as cited in patent US20060155301A1, “Methods and devices usable in eye surgery” (priority 2002, published 2006).
Where two headings read alike, the source gives them in different places.

B1: trypsin (protein, UniProt P00760 24-246, looked up)
Serine protease 1: IVGGYTCGANTVPYQVSLNSGYHFCGGSLINSQWVVSAAHCYKSGIQVRLGEDNINVVEGNEQFISASKSIVHPSYNSNTLNNDIMLIKLKSAASLNSRVASISLPTSCASAGTQCLISGWGNTKSSGTSYPDVLKCLKAPILSDSSCKSAYPGQITSNMFCAGYLEGGKDSCQGDSGGPVVCSGKLQGIVSWGSGCAQKNKPGVYTKVCNYVSWIKQTIASN
notes: enzyme evaluated for separation of lens epithelial cells

What was measured:
[1] = system: lens epithelial cells; conditions: in vitro
[2] = system: lens epithelial cells; conditions: EDTA solution in irrigation solution, cadaver eyes
[3] = system: lens epithelial cells; conditions: 2% trypsin solution in irrigation solution, cadaver eyes

| Molecule | inhibiting lens epithelial cells proliferation [1] | other results |
| --- | --- | --- |
| O=c1[nH]cc(F)c(=O)[nH]1 [5 fluorouracil] | effective |  |
| O=C(O)CN(CCN(CC(=O)O)CC(=O)O)CC(=O)O [EDTA, Ethylenediamine tetraacetic acid] |  | separation of lens epithelial cells [2]: the anterior lens epithelial cells could be separated |
| COc1cc2c(c(OC)c1OC)-c1ccc(OC)c(=O)cc1[C@@H](NC(C)=O)CC2 [colchicines] | effective |  |
| COc1cccc2c1C(=O)c1c(O)c3c(c(O)c1C2=O)C[C@@](O)(C(C)=O)C[C@@H]3O[C@H]1C[C@H](N)[C@H](O)[C@H](C)O1 [daunomycin/daunorubicin] | effective |  |
| COc1cccc2c1C(=O)c1c(O)c3c(c(O)c1C2=O)C[C@@](O)(C(=O)CO)C[C@@H]3O[C@H]1C[C@H](N)[C@H](O)[C@H](C)O1 [doxorubicin] | effective |  |
| CN(Cc1cnc2nc(N)nc(N)c2n1)c1ccc(C(=O)N[C@@H](CCC(=O)O)C(=O)O)cc1 [methotrexate] | effective |  |
| CO[C@@]12[C@H](COC(N)=O)C3=C(C(=O)C(C)=C(N)C3=O)N1C[C@@H]1N[C@@H]12 [mitomycin] | effective |  |
| CC(=O)O[C@H]1C(=O)[C@@]2(C)[C@H]([C@H](OC(=O)c3ccccc3)[C@]3(O)C[C@H](OC(=O)[C@H](O)[C@@H](NC(=O)c4ccccc4)c4ccccc4)C(C)=C1C3(C)C)[C@]1(OC(C)=O)CO[C@@H]1C[C@@H]2O [taxol] | effective |  |
| B1 |  | damage to the zonules [3]: the zonules were damaged; separation of lens epithelial cells [3]: lens epithelial cells were stripped in places |
